Results as given in patent US6095147A, “Method for photo-altering a biological system to improve biological effect” (The Regents of the University of California, priority 1994, dated 2000).

How the values were obtained:
conjunctiva = experiment: Posterior lip sclerectomy (filtration surgery) with preoperative SnET2 injection and postoperative laser irradiation; type: in vivo, rabbit; details: 665 nm, 100 mW/cm^2
Description: (§1) Pharmacokinetics of the photosensitive agent or tin ethyl-etiopurpurin (SnET2) were studied after subconjunctival injections (0,25,50,75 ug; 11 rabbits). Noninvasive measurements were made at 0, 0.5, 1, 2, 3 and 4 hr postinjection using a HeCd based laser fluorescence diagnostic system (excitation-442 nm; detection-670 nm SnET2 fluorescence; tissue autofluorescense-570 nm). SnET2 uptake was determined by an elevated 670/570 nm ratio. Preoperative injections (0, 25, 50 and 75 ug; 8 rabbits) of SnET2 were given and posterior lip sclerectomies were performed after 3-4 hrs followed by post operative laser irradiation (665 nm; 100 mW/cm^2; 30 J/cm^2). […] Self absorption of the fluorescence was present in the higher doses for the conjunctiva. Fluorescence ratios (T=3 hr) were as follows. The fluorescence ratios are shown below in Table 2. The tissue ratios were: conjunctiva/iris: 0 (control)=1.2; 25 ug=63+/-17; 50 ug=54+/-31; 75 ug=4+/-1.2. Conjunctiva/optical axis: 0 (control)=1.4; 25 ug=109+/-37; 50 ug=78+/-10; 75 ug=11+/-2.5.
Some of the animals of the group shown in Table 2 and 3 were treated with 665 nanometers laser light at 100 milliwatt per square centimeter (30 Joules per square centimeter) exposure with 8 millimeter diameter spot three to four hours after the injection of the SnET2 following filtering surgery in the eye.

[1] = Noninvasive laser fluorescence (HeCd) measurement of SnET2 uptake and distribution in ocular tissues after subconjunctival injection; type: in vivo, rabbit; details: for Axis Fluorescence Ratio (670 nm/570 nm) / Conjunctiva Fluorescence Ratio (670 nm/570 nm) / Iris Fluorescence Ratio (670 nm/570 nm) / Ratio of Fluorescence (Conjuctiva/Axis) / Ratio of Fluorescence (Conjuctiva/Iris): 3 hr
Description: as §1
Noninvasive fluorescent measurements, using a HeCd laser, was made of the SnET2 to determine its uptake and distribution. Exposure of SnET2 with a HeCd laser, excites the tissue at 442 nanometers and detects 670 nanometer florescence for SnET2 and 570 nanometer for tissue autofluorescence. The higher the ratio (670 nm/570 nm), the higher the uptake. Measurements in the conjunctiva compared to the iris and of the conjunctiva as compared to the axis of the eye, namely the pupil, were compared three hours after injection. […] In this case the self-absorption of the 670 nm fluorescence by the SnET2 at such a high local concentration causes the intensity to actually decrease. […] This is also due to self-absorption. Note that for the iris and axis readings the signal does continue to increase with increasing injected dose due to the greater leakage into these areas of the eye with the higher injected doses. This is a negative, unwanted effect and is why the ratios of the conjuntiva/iris and conjuntiva/axis ratios decrease in Table 3. […] The decreased tissue ratios at the higher photosensitizer injection doses indicate lower specificity due to greater leakage from the injection site.

[2] = 25 μg subconjunctival, 3 animals
[3] = 50 μg subconjunctival, 3 animals
[4] = 75 μg subconjunctival, 5 animals

- Axis Fluorescence Ratio (670 nm/570 nm) [1, 2]: 0.26 +/- 0.03
- Conjunctiva Fluorescence Ratio (670 nm/570 nm) [1, 2]: 28.27 +/- 10.90
- Iris Fluorescence Ratio (670 nm/570 nm) [1, 2]: 0.44 +/- 0.08
- Ratio of Fluorescence (Conjuctiva/Axis) [1, 2]: 109+/-37
- Ratio of Fluorescence (Conjuctiva/Iris) [1, 2]: 63+/-17
- Axis Fluorescence Ratio (670 nm/570 nm) [1, 3]: 0.37 +/- 0.05
- Conjunctiva Fluorescence Ratio (670 nm/570 nm) [1, 3]: 31.70 +/- 8.60
- Iris Fluorescence Ratio (670 nm/570 nm) [1, 3]: 0.65 +/- 0.21
- Ratio of Fluorescence (Conjuctiva/Axis) [1, 3]: 78+/-10
- Ratio of Fluorescence (Conjuctiva/Iris) [1, 3]: 54+/-31
- Axis Fluorescence Ratio (670 nm/570 nm) [1, 4]: 1.30 +/- 0.90
- Iris Fluorescence Ratio (670 nm/570 nm) [1, 4]: 4.72 +/- 4.94
- Ratio of Fluorescence (Conjuctiva/Axis) [1, 4]: 11 +/- 2.5
- Ratio of Fluorescence (Conjuctiva/Iris) [1, 4]: 4 +/- 1.2
- Conjunctiva Fluorescence Ratio (670 nm/570 nm) ([1]; 75 μg subconjunctival, 5 animals, self-absorption of fluorescence): 15.14 +/- 13.60
- levels in the iris and optical axis ([1]; subconjunctival injection): small, but detectable levels
- time of peak conjunctival fluorescence post injection ([1]; subconjunctival injection): 3 h
Structure (SMILES): CCOC(=O)C1=Cc2c3nc(cc4nc(cc5[n-]c(cc6[n-]c2c(C)c6CC)c(C)c5CC)C(C)=C4CC)[C@@H](C)[C@]13CC.[Cl-].[Cl-].[Sn] (racemic) [SnET2, tin ethyl-etiopurpurin]
- overall effect of photodynamic therapy on conjunctiva (conjunctiva; 30 J/cm^2): titratable, localized, transient, post operative avascular conjunctiva
- avascular conjunctiva, post operative (conjunctiva; SnET2 25, 50, 75 ug, 30 J/cm^2, 3-4 hrs after injection): large transient areas of avascular conjunctiva were produced
- limitation of avascular areas to filtering blebs (conjunctiva; at 4 weeks, 30 J/cm^2): limitation of avascular areas to filtering blebs at 4 weeks
- uptake and retention at the injection site (conjunctiva) ([1]; subconjunctival injection): preferentially taken up and preferentially remains in the area of the injection, namely the conjunctiva
